Laboratory results published in patent US8748484B2, “Organometallic anti-cancer complexes” (Research Foundation of The City University of New York, priority 2011, dated 2014).
pIC50: −log10 of the molar value.

Key:
Test in all cases: Antiproliferative activity, viable cell count (trypan blue) after 96 hours
Type in all cases: cell-based, human
[1] = test system: HT-29; details: for pIC50: HT-29, Colon, 96 hours, 50% growth inhibition vs DMSO, Compound 4 values above 25 μM are estimates from the plot 1-25 μM
Protocol: (§1) The antiproliferative activity of compounds 1-4 was determined in the seven types of human cancer cell lines K562 (Chronic Myelogenous Leukemia, CML), HT-29 (colon), and HL-60 (Acute Myloid Leukemia, AML), DU-145 (prostate), MCF-7 (breast), and GRANTA-519 (Mantle Cell Leukemia, MCL), and NSCL (non small cell lung carcinoma) and compared with cisplatin.
(§2) Human cancer cells were plated in twelve-well dishes at a cell density of 2.5×10^4 cells/ml/well. The cells were treated, in duplicate, 24 hours later with increasing concentrations of each compound or cisplatin from Sigma (Table 3). The total number of viable cells was determined after 96 hours later by cell counting by hemacytometer and trypan blue staining. The percentage of viable cells remaining was calculated as follows: number of viable cells (compound treated)/number of viable cells (DMSO treated)*100. Compound 1 dose response assay plot (FIG. 3) is the average percent viable cells of the treated compared to the vehicle (DMSO) treated cells. DU-145, MCF-7, HT-29, H460 cells were grown in DMEM and K562, HL-60, Granata-519 cells were grown in RPMI medium both supplemented with 10% FBS (cell Generation) and 1 unit penicillin. Cells were routinely grown and treated at 37° C. under 90% humidity. The IC50 (50% growth inhibition as compared to DMSO treated control) values in micromoles were determined by extrapolation from the dose response curves. Dose response curves were generated by plotting the percentage of cells at each concentration versus concentration tested. Compound 1 was chosen to produce more detailed growth curves based on overall highest activity profile. Similarly, cells were treated at increasing concentrations of cisplatin and detailed growth curves were generated (FIG. 4). Thus the activity of compound 1 was compared to cisplatin.

[2] = test system: MCF-7; details: for pIC50: MCF-7, Breast, 96 hours, 50% growth inhibition vs DMSO, Compound 4 values above 25 μM are estimates from the plot 1-25 μM
Protocol: as §1, §2

[3] = test system: HL-60; details: for pIC50: HL-60, AML, 96 hours, 50% growth inhibition vs DMSO
Protocol: as §1, §2

[4] = test system: GRANTA-519; details: for pIC50: GRANTA-519, MCL, 96 hours, 50% growth inhibition vs DMSO
Protocol: as §1, §2

[5] = test system: H460; details: for pIC50: H460, NSCLC, 96 hours, 50% growth inhibition vs DMSO, Compound 4 values above 25 μM are estimates from the plot 1-25 μM
Protocol: as §1, §2

[6] = test system: K562; details: for pIC50: K562, CML, 96 hours, 50% growth inhibition vs DMSO, Compound 4 values above 25 μM are estimates from the plot 1-25 μM
Protocol: as §1, §2

[7] = test system: DU145; details: for pIC50: DU145, Prostate, 96 hours, 50% growth inhibition vs DMSO
Protocol: as §1, §2

| Molecule | pIC50 [1] | pIC50 [2] | pIC50 [3] | pIC50 [4] | pIC50 [5] | pIC50 [6] | pIC50 [7] | anticancer activity relative to cisplatin ([1]; HT-29, times higher than cisplatin) | anticancer activity relative to cisplatin ([2]; MCF-7, times more potent than cisplatin) | anticancer activity relative to cisplatin ([3]; HL-60, times higher than cisplatin) | anticancer activity relative to cisplatin ([4]; GRANTA-519, times more potent than cisplatin) | anticancer activity relative to cisplatin ([5]; NSCL (non small cell lung carcinoma)) | anticancer activity relative to cisplatin ([6]; K562, times higher than cisplatin) | anticancer activity relative to cisplatin ([7]; DU-145, times more potent than cisplatin) |
| --- | --- | --- | --- | --- | --- | --- | --- | --- | --- | --- | --- | --- | --- | --- |
| N.N.[Cl][Pt][Cl] [Cisplatin, reference compound] | 5.52 | 5.82 | 6.12 | 6.60 | 6.12 | 5.82 | 6.00 |  |  |  |  |  |  |  |
| CC1=C2[O][Ru-]3(=[C]=O)(=[C]=O)([O+]=C2C=CO1)[Ru](=[C]=O)(=[C]=O)(=[C]=O)(=[C]=O)[Ru-]31(=[C]=O)(=[C]=O)[O]C2=C(C)OC=CC2=[O+]1 [Cmpd 1, [Ru3(CO)8(C12H10O6)]] | 6.30 | 6.40 | 7.00 | 7.12 | 6.12 | 6.52 | 6.30 | 5-7 times | 2-3 times | 5-7 times | 2-3 times | the same as cisplatin | 5-7 times | 2-3 times |
| CC1=C2[O][Ru-]3(=[C]=O)(=[C]=O)([O+]=C2C=CO1)[Ru](=[C]=O)(=[C]=O)(=[C]=O)([P](c1ccccc1)(c1ccccc1)c1ccccc1)[Ru-]31(=[C]=O)(=[C]=O)[O]C2=C(C)OC=CC2=[O+]1 [Cmpd 2, [Ru3(CO)7(C12H10O6)(PPh3)]] | 5.30 | 5.60 | 6.12 |  | 5.30 | 5.60 | 5.60 |  |  |  |  |  |  |  |
| [Ru3(CO)6(C12H10O6)(dppe)] [Cmpd 4] |  |  |  |  |  |  | 5.00 |  |  |  |  |  |  |  |
| [Ru3(CO)6(C12H10O6)(dppm)] [Cmpd 3] | < 4.00 | 4.12 | 4.60 |  | 4.15 | 4.52 | 4.60 |  |  |  |  |  |  |  |
